26 compounds from patent US6162810A, “Inadone and tetralone compounds for inhibiting cell proliferation” (The Regents of the University of California, priority 1998, dated 2000) can be followed below.

The test system of one test is MV522/Q6. The test can be described thus: Growth inhibition of MV522/Q6 (MDR). The test is classed as cell-based. Conditions: Homo sapiens, ±1 SD, n>5.
Another test has as its system MV522. Nature of the test: Growth inhibition of MV522 (wild type). In kind it is cell-based. The conditions noted are these: Homo sapiens, ±1 SD, n>5.
The test system of the next test is MDA3-1/gp170. Nature of the test: Growth inhibition of MDA3-1/gp170 (MDR). In kind it is cell-based. The conditions noted are these: Homo sapiens, MDR1, ±1 SD, n>5.
In another test the test system is HL-60. Nature of the test: Growth inhibition of HL-60 (wild type). The test is classed as cell-based. The conditions noted are these: Homo sapiens, ±1 SD, n>5.
For the next test, the system named is KB-3-1. The test can be described thus: Growth inhibition of KB-3-1 (wild type). The conditions noted are these: Homo sapiens, ±1 SD, n>5. The test is classed as cell-based.
Test [1] relates to HL-60/ADR and MDF-7/ADR cells. Nature of the test: MTT assay, visual comparison of cells with and without MDR (FIGS. 1 and 2). The conditions noted are these: 3 days. In kind it is cell-based, human.
Another test has as its system KB-GRC-1 and MV522/Q6. The test can be described thus: MTT proliferation assay of mdr1 overexpressing transfectomas. The conditions noted are these: 72 h. The test is classed as cell-based, human. On the technique in general: Tetrazolium dyes change colour on reduction, which living cells bring about.
Another test concerns MDA-MB-321. Nature of the test: Growth inhibition of MDA-MB-321 (wild type). In kind it is cell-based. The conditions noted are these: Homo sapiens, ±1 SD, n>5.
The subject of a further test is CEM. Nature of the test: Growth inhibition of CEM (wild type). In kind it is cell-based. Conditions: Homo sapiens, CCRF-CEM, ±1 SD, n>5.
A further test has as its system KB-GRC-1. Nature of the test: Growth inhibition of KB-GRC-1 (MDR). Conditions: Homo sapiens, MDR1, ±1 SD, n>5. The test is classed as cell-based.
In the next test the test system is MCF-7. Nature of the test: Growth inhibition of MCF-7 (wild type). The test is classed as cell-based. The conditions noted are these: Homo sapiens, MCF7, ±1 SD, n>5.
The subject of the next test is HL-60/ADR. Nature of the test: Growth inhibition of HL-60/ADR (MDR). The test is classed as cell-based. Conditions: Homo sapiens, HL60/ADR, ±1 SD, n>5.
A further test relates to CEM/VLB100. Nature of the test: Growth inhibition of CEM/VLB100 (MDR). Conditions: Homo sapiens, ±1 SD, n>5. The test is classed as cell-based.
Another test deals with MCF-7/ADR. The test can be described thus: Growth inhibition of MCF-7/ADR (MDR). The test is classed as cell-based. The conditions noted are these: Homo sapiens, NCI/ADR-RES, ±1 SD, n>5.
A further test deals with MES-SA. Nature of the test: Growth inhibition of MES-SA (wild type). In kind it is cell-based. Conditions: Homo sapiens, ±1 SD, n>5.
The next test has as its system MES-SA/DX5. Nature of the test: Growth inhibition of MES-SA/DX5 (MDR). In kind it is cell-based. Conditions: Homo sapiens, ±1 SD, n>5.
Test [2] has as its system CEM WT, CEM AB9228, MOLT-4, Jurkat, NALL-1, WI-L2, K562, and HL-60 cells. Nature of the test: Cytotoxicity to various proliferating cell lines (average). In kind it is cell-based, human. Conditions: Homo sapiens. The method, then:
(§1) (B) Similarly, compounds of the invention were tested for their ability to kill CEM WT, CEM AB9228, MOLT-4, Jurkat, NALL-1, WI-L2, K562, and HL-60 cells.

The next test has as its system proliferating cells. The test can be described thus: Ability of further compounds to kill proliferating cells (average). The test is classed as cell-based. The method, then:
as §1
(C) Proceeding as described above, further compounds were tested for their ability to kill proliferating cells.

Test [3] concerns human Jurkat T cell leukemia cells. The test can be described thus: Cytotoxicity to human Jurkat T cell leukemia cells, 3 days culture. In kind it is cell-based. Conditions: 72 h, concentration necessary to kill 50% of the cells, three days, OD570/650, read-out: TC50 (the source's name). The method, then:
(A) The compounds prepared in Example 1 above were tested for biological activity by culturing human Jurkat T cell leukemia cells for three days at an initial density of 10^5 cells/ml in RPMI 1640+10% FBS (fetal bovine serum). Compounds of the invention were added, and the concentration necessary to kill 50% (TC50) of the cells was determined by OD570/650.

A further test deals with HL-60/ADR cells. The test can be described thus: Apoptosis of HL-60/ADR cells (FACS). In kind it is cell-based, human. The method, then:
FACS analysis was performed to determine the influence of the TB compounds of the invention on growth cycling of cells (the analysis was performed on harvested cells, fixed in ice-cold 70% ethanol solution, then treated with 100 μg/ml of RNAse A and stained with 50 μg/ml propidium iodide for 1 h at 37° C. DNA content of the cells was analyzed by flow cytometry (Becton Dickinson FACScalibur), and the cell cycle distribution was calculated with the program ModFit LT 2.0 (Verity Software)).
First, the stage at which the TB compounds of the invention arrest growth of HL-60 and HL-60/ADR cells was determined by FACS analysis and caspase-3 activation as described above.

A further test deals with caspase-3 in HL-60 cells. The test can be described thus: Caspase-3 activation in HL-60 cells. The test is classed as cell-based, human. The conditions noted are these: HL-60 cells.
The mark [4] stands for this setting: average TC50 over various proliferating cell lines, read-out: TC50 (the source's name).
The mark [5] stands for this setting: average TC50, proliferating cells, read-out: TC50 (the source's name).

Where two headings read alike, the source gives them in different places.

As usually defined, the GI50 is the concentration giving 50% growth inhibition. Low readings indicate greater sensitivity of the cells, high ones lower sensitivity of the cells. Consider `CC(=O)O[C@H]1C(=O)[C@@]2(C)[C@H]([C@H](OC(=O)c3ccccc3)[C@]3(O)C[C@H](OC(=O)[C@H](O)[C@@H](NC(=O)c4ccccc4)c4ccccc4)C(C)=C1C3(C)C)[C@]1(OC(C)=O)CO[C@@H]1C[C@@H]2O` [Paclitaxel, paclitaxel, reference compound], for which the GI50 in the test with MV522/Q6 is 358 ± 8 nM; in the test with MV522, 15 ± 4 nM; in the test on MDA3-1/gp170, more than 1000 nM; in the test with HL-60, less than 1 nM; in the test on KB-3-1, 7 ± 3 nM; in the test with MDA-MB-321 it was 50 ± 2 nM. The GI50 in the test on CEM is less than 1 nM; in the test with KB-GRC-1, more than 1000 nM; in the test with MCF-7, 50 ± 6 nM; in the test on HL-60/ADR, more than 1000 nM; in the test on CEM/VLB100 it was 606 ± 20 nM; in the test on MCF-7/ADR, more than 10000 nM. In addition, the results for the GI50 in the test with MES-SA and with MES-SA/DX5 were less than 1 nM and more than 1000 nM, respectively. For the same compound, the “sensitivity with acquisition of MDR” value in [1] is reported as “sensitivity to paclitaxel was lost”. In the test with KB-GRC-1 and MV522/Q6, the “sensitivity of transfectomas overexpressing mdr1” value is listed as “resistant”.

In the case of `COc1cc2c(cc1OC)C(=O)C(=Cc1cc(F)cc(F)c1)C2` [5,6-dimethoxy-2-(3',5'-difluorophenylmethylene)-1-indanone], the CC50 (in [2] (setting [4]); with proliferating cells (setting [5])) was 19000 nM throughout.

For `COc1cc2c(cc1OC)C(=O)C(=Cc1cccc(OC)c1OC)CC2` [6,7-dimethoxy-2-(2',3'-dimethoxyphenylmethylene)-1-tetralone], the CC50 (in test [2] (setting [4]); with proliferating cells (setting [5])) was more than 50000 nM throughout.

Consider `COc1cc(C=C2Cc3cc(OC)c(OC)cc3C2=O)cc(OC)c1` [5,6-dimethoxy-2-(3',5'-dimethoxyphenylmethylene)-1-indanone], for which the values for the CC50 (in test [2] (setting [4]); with proliferating cells (setting [5]); in test [3]) were 750 nM, 2000 nM and 750 nM, respectively.

As for `COc1cc2c(cc1OC)C(=O)C(=Cc1cccc(Cl)c1)C2` [5,6-dimethoxy-2-(3'-chlorophenylmethylene)-1-indanone], the CC50 in [2] (setting [4]) was more than 50000 nM; in the test on proliferating cells (setting [5]), 2500 nM.

As to `COc1cc(/C=C2\CCc3cc(OC)c(OC)cc3C2=O)cc(OC)c1` [6,7-dimethoxy-2-(3',5'-dimethoxyphenylmethylene)-1-tetralone], the CC50 in test [2] (setting [4]) amounted to 4000 nM; in test [3], 5000 nM.

For `COc1ccc(C=C2CCc3cc(OC)c(OC)cc3C2=O)cc1` [6,7-dimethoxy-2-(4'-methoxyphenylmethylene)-1-tetralone], the CC50 (in [2] (setting [4]); in the test on proliferating cells (setting [5])) was more than 50000 nM in each case.

On to `COc1cc2c(c(N)c1OC)C(=O)C(=Cc1cc(C)c(O)c(C)c1)C2` [5,6-dimethoxy-7-amino-2-(3',5'-dimethyl-4'-hydroxyphenylmethylene)-1-indanone], for which the CC50 in test [2] (setting [4]) stood at 5 nM; with proliferating cells (setting [5]) it was 0.8 nM.

As to `COc1cc2c(cc1OC)C(=O)/C(=C/c1cc(Cl)cc(Cl)c1)C2` [5,6-dimethoxy-2-(3',5'-dichlorophenylmethylene)-1-indanone], the figures for the CC50 (in test [2] (setting [4]); with proliferating cells (setting [5]); in test [3]) were 750 nM, 2000 nM and 750 nM, respectively.

As for `COc1cc2c(cc1OC)C(=O)C(=Cc1cc(OC)c(O)c(OC)c1)C2` [5,6-dimethoxy-2-(3',5'-dimethoxy-4'-hydroxyphenylmethylene)-1-indanone], the CC50 (in test [2] (setting [4]); with proliferating cells (setting [5])) was more than 50000 nM in each case.

For the compound `COc1ccc(C=C2CCc3cc(OC)c(OC)cc3C2=O)cc1OC` [6,7-dimethoxy-2-(3',4'-dimethoxyphenylmethylene)-1-tetralone], the CC50 (in test [2] (setting [4]); in the test with proliferating cells (setting [5])) was more than 50000 nM in each case.

For `COc1cc2c(c(NC(=O)C(=O)O)c1OC)C(=O)C(=Cc1cc(C)c(O)c(C)c1)C2` [5,6-dimethoxy-7-oxalylamino-2-(3',5'-dimethyl-4'-hydroxyphenylmethylene)-1-indanone], the CC50 in [2] (setting [4]) stood at 4 nM; with proliferating cells (setting [5]), 150 nM.

`COc1cc(C=C2Cc3cc(OC)c(OC)cc3C2=NO)cc(OC)c1` [5,6-dimethoxy-2-(3',5'-dimethoxyphenylmethylene)-1-hydroximinioindane]: the CC50 in test [2] (setting [4]) and in test [3] was 800 nM throughout.

Take `COc1cc2c(cc1OC)C(=O)C(=Cc1cc(C)ccc1C)C2` [5,6-dimethoxy-2-(2',5'-dimethylphenylmethylene)-1-indanone]: the results for the CC50 (in test [2] (setting [4]); in the test with proliferating cells (setting [5])) were 162000 nM and 30500 nM, respectively.

For the compound `COc1cc2c(c(OC)c1OC)-c1ccc(OC)c(=O)cc1[C@@H](NC(C)=O)CC2` [colchicine, reference compound], in the test with HL-60/ADR cells, the apoptosis entry was “did not induce the apoptosis”. For the same compound, the caspase-3 activity result in the test with caspase-3 in HL-60 cells is on record as “did not activate caspase-3”.

As to `COc1cc2c(cc1OC)C(=O)C(=Cc1cc([N+](=O)[O-])ccc1O)C2` [5,6-dimethoxy-2-(2'-hydroxy-5'-nitrophenylmethylene)-1-indanone], the CC50 stood at 15000 nM in test [2] (setting [4]) and 14500 nM in the test on proliferating cells (setting [5]).

As for `COc1cc2c(c([N+](=O)[O-])c1OC)C(=O)/C(=C/c1cc(C)c(O)c(C)c1)C2` [5,6-dimethoxy-7-nitro-2-(3',5'-dimethyl-4'-hydroxyphenylmethylene)-1-indanone], the CC50 (in test [2] (setting [4]); in the test on proliferating cells (setting [5])) was more than 50000 nM throughout.

As for `COc1cc2c(cc1OC)C(=O)C(=Cc1cc(C)c([N+](=O)[O-])c(C)c1)C2` [5,6-dimethoxy-2-(3',5'-dimethyl-4'-nitrophenylmethylene)-1-indanone], the CC50 in the test with proliferating cells (setting [5]) was more than 50000 nM.

As to `COc1cc(C=C2Cc3cc(C)c(C)cc3C2=O)cc(OC)c1` [5,6-dimethyl-2-(3',5'-dimethoxyphenylmethylene)-1-indanone], in the test with proliferating cells (setting [5]), the CC50 was more than 50000 nM.

`O=C1C(=Cc2cc(Cl)cc(Cl)c2)Cc2ccccc21` [2-(3',5'-dichlorophenylmethylene)-1-indanone]: the CC50 in the test on proliferating cells (setting [5]) came out at 30000 nM.

Turning to `COc1cc2c(cc1OC)C(=O)C(=Cc1ccc(O)cc1)CC2` [6,7-dimethoxy-2-(4'-hydroxyphenylmethylene)-1-tetralone], the CC50 (in test [2] (setting [4]); in the test on proliferating cells (setting [5])) was 30000 nM each time.

Take `COc1cc2c(cc1OC)C(=O)C(=Cc1cc(I)cc(I)c1O)C2` [5,6-dimethoxy-2-(2'-hydroxy-3',5'-diiodophenylmethylene)-1-indanone]: in the test with proliferating cells (setting [5]), the CC50 came to 12500 nM.

Turning to `COc1cc2c(cc1OC)C(=O)/C(=C/c1cc(C)c(O)c(C)c1)C2` [5,6-dimethoxy-2-(3',5'-dimethyl-4'-hydroxyphenylmethylene)-1-indanone], the CC50 in test [2] (read-out: TC50) amounted to 17 nM; in the test on proliferating cells (read-out: TC50), 6.5 nM.

`COc1cc2c(cc1OC)C(=O)C(=Cc1cc(C)cc(C)c1)C2` [5,6-dimethoxy-2-(3',5'-dimethylphenylmethylene)-1-indanone]: the CC50 in test [2] (setting [4]) was determined as 75 nM; in the test on proliferating cells (setting [5]), 81 nM; in test [3], 75 nM.

Regarding `COc1cc(C=C2Cc3cc(OC)c(OC)cc3C2O)cc(OC)c1` (stereo not drawn) [5,6-dimethoxy-2-(3',5'-dimethoxyphenylmethylene)-1-hydroxyindane], in test [3], the CC50 came out at 750 nM.

Regarding `COc1cc2c(c(NC(=O)C=O)c1OC)C(=O)C(=Cc1cc(C)c(O)c(C)c1)C2` [5,6-dimethoxy-7-(NHCOCOH)-2-(3',5'-dimethyl-4'-hydroxyphenylmethylene)-1-indanone], the CC50 in the test with proliferating cells (setting [5]) worked out at 1.5 nM.
